Laboratory results published in US20110294794A1, “TREATMENT OF PROTEINOPATHIES USING A FARNESYL TRANSFERASE INHIBITOR” (Link Medicine Corporation, priority 2008, published 2011).
“Also recorded” adds a separate entry of the source.

System: Aβ
Assay: Aβ pathology in APP/PS1 transgenic mice (6E10, Thioflavin-S, ELISA)
Type: in vivo, mouse
Settings: 0.9 mg/kg once every 24 hr, two months
Description: Immunohistochemistry and quantification of stained cells: For evaluation of α-synuclein immunoreactivity (IR), 5 sagittal cryo-cut sections (10 μm slice thickness) from five different layers were used for counting of IR cells in the cortex and hippocampus. Brain sections were stained with a monoclonal human α-synuclein specific antibody (Alexis®; Cat# 804-258-L001; dilution 1:5), followed by a secondary Ab Cy 2-Goat Anti-Rat (Jackson ImmunoResearch®; dilution 1:200). IR positive cells were quantified using specialized image analysis software (Image Pro Plus, version 4.5.1.29). […] Images were evaluated with ImageProPlus (version 6.2) image analysis software. For APP/PS1 transgenic animals sagittal hemisections (40 μm) were collected and processed for Aβ immunohistochemistry using an 6E10 antibody, Thioflavin-S staining Primary antibodies were detected by the ABC method.
ELISA quantification of α-Synuclein in the α-Synuclein transgenic animals: Brain homogenate was centrifuged and the supernatant saved as fraction F1. […] Raw absorbance (405 nm) was then normalized to the total protein concentration of each sample. […] To quantify the amount of human Aβ-40 and Aβ-42, ELISA kits were used (The Genetics Company, Zurich, Switzerland). […]

Q: `C#Cc1cccc(-c2cc(=O)n(C)c3ccc([C@](O)(c4ccc(Cl)cc4)c4cncn4C)cc23)c1` [LNK-754-TS, (R)-6-[(4-chlorophenyl)-hydroxyl-(1-methyl-1-H-imidazol-5-yl)-methyl]-4-(3-ethynylphenyl)-1-methyl-2-(1H)-quinonlinone (2S,3S)-dihydroxybutanedioate] was tested. Which “levels of Aβ40/Aβ42 extracted from whole brain fractions (Elisa)” value did it give?
A: no statistically significant changes

Q: And the “number of Aβ (6E10) immunoreactive plaques in the subiculum vs. vehicle” value?
A: lesser, but still significant, effect; also recorded: significant decrease
